One may read the inhibition as the relative decrease from the control value, in per cent. Low readings indicate little suppression, high ones strong suppression. Broadly, the ED50 is the dose that gives a 50% effect, or the effect in half of the subjects. Higher therefore signals weaker potency.

One assay has as its target T1, squalene synthase (Rattus norvegicus, UniProt Q02769).
T1 construct: from tissue; host or cells: rat liver microsomes
T1 sequence (Q02769 1-416): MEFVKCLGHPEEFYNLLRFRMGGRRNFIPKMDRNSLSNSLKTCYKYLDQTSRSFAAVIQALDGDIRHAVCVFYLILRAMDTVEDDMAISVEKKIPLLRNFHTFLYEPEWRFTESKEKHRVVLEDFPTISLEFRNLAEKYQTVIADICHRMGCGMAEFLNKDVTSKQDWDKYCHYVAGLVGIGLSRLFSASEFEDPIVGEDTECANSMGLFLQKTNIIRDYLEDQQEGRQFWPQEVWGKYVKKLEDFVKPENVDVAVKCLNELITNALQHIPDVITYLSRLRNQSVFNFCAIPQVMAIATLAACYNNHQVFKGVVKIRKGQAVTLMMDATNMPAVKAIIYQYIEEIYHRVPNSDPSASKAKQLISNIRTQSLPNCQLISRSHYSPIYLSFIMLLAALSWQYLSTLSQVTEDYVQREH
As to the kind of experiment: Inhibition of squalene synthase (formation of squalene from tritiated farnesyl pyrophosphate, rat liver microsomal protein). Format: biochemical. The conditions noted are these: at a concentration of 2.5µM, substrate 20µM. As for the experimental part:
(a) Inhibition of Squalene synthase
In this test, the ability of a compound to prevent the formation of squalene from a radioactive substrate (tritiated farnesyl pyrophosphate) is assessed.
The test compound is incubated at a concentration of 25 micromolar in 200µl of a buffered solution containing potassium phosphate (50mM), MgCl2 (4.95mM), KF (9.9mM), NADPH (0.9mM) and rat liver microsomal protein (20µg). Rat liver microsomes are prepared by the method described in published European Patent Application No. 324,421 and stored in liquid nitrogen prior to assay. Assay vials are kept at 37°C throughout the incubation.
The reaction is started with the addition of the substrate (1-(^3H]-farnesyl pyrophosphate), final concentration 20µM, and stopped after 15 minutes reaction time with the addition of 50µl of 4% KOH. The reaction products are separated from unreacted substrate after application to a C-18 octadecyl 1ccBond column (Analytichem Int product No. 617101). An aqueous fraction is eluted with 250µl of 0.1M KOH. Squalene is then eluted with 1.0 ml 10% ethylacetate in hexane and radioactivity determined. The difference in radioactivity in the presence and absence of the test compound is used to determine the level of inhibition. […] The IC50 can then be determined from a plot of percentage inhibition against concentration of test compound.

The test system of assay [1] is de novo hepatic cholesterol synthesis. Briefly: Acute rat cholesterol synthesis assay (de novo hepatic cholesterol synthesis from 14C-acetate). Type of assay: in vivo. The conditions noted are these: for ED50: 14C-acetate. The protocol: (b) Acute rat cholesterol synthesis assay.
This is an acute in vivo test in the rat to measure de novo hepatic cholesterol synthesis from exogenously administered ^14C-acetate.
Female rats (35 - 55 g) are housed in reverse lighting conditions (red light from 0200h - 1400h) for a period of about 2 weeks prior to test. Animals are allowed free access to chow and drinking water throughout this period. At test, animals should weigh 125 - 150 g. Test compounds may be administered by oral gavage, dissolved or suspended in 0.5% polysorbate, or by ip or iv dosing. Control animals receive vehicle alone. After 1 hour the rats are injected ip with 25µCi [2-^14C]-acetate (NEN DUPONT. specific activity, 45-60mCi/mmol NEC-085H, or AMERSHAM specific activity, 50-60mCi/mmol CFA 14) in a volume of 0.25 ml saline (100µCi/ml). After a further hour, rats are terminally anaesthetised with halothane and a blood sample obtained from the abdominal vena cava.
1ml of plasma is lyophilised and then saponified in 2ml ethanolic KOH (1 part 33% KOH, 9 parts ethanol) at 75°C for 2 hours. After addition of an equal quantity of water, non-saponifiable lipids are extracted with two 5ml volumes of hexane. The hexane extracts are evaporated to dryness and the residues dissolved in ethanol to determine cholesterol specific radioactivity. ED50 values can be determined in the standard way.

As for `OC1(c2ccc(-c3ccc4ccccc4n3)cc2)CN2CCC1CC2` (centres unmarked) [Example 3, 3-[4-(2-quinolyl)phenyl)quinuclidin-3-ol], at squalene synthase, the inhibition at 2.5 µM is roughly 71%. In assay [1], this molecule registered an ED50 of roughly 14 mg/kg. Further, the “reduction in the rate of cholesterol biosynthesis” value in assay [1] (dose not given) is 74%.
`OC1(c2ccc(-c3nc4ccccc4o3)cc2)CN2CCC1CC2` (centres unmarked) [Example 6, 3-[4-(benzoxazol-2-yl)phenyl]quinuclidin-3-ol] showed an ED50 in assay [1] of roughly 4.5 mg/kg.
The same measure, in the same setting: next, `OC1(c2ccc(-c3cnc4ccccc4c3)cc2)CN2CCC1CC2` (centres unmarked) [Example 12, 3-[4-quinol-3-ylphenyl]quinculidin-3-ol]: roughly 3.8 mg/kg.

(Values after patent publication EP0674635B1, “QUINUCLIDINE DERIVATIVES AS SQUALENE SYNTHASE INHIBITORS” (Syngenta Limited, priority 1992, dated 1994).)
